Laboratory results published in US20070128217A1 (priority 2003, published 2007).

What was measured:
[1] = system: antibodies in sera from SARS patients (sera 1a, 1b, 2, 6, 37, 62, London, SARS-yellow, SARS-green); assay type: binding, human; set-up: Binding of serum 6 to linear peptides of protein X1 of SARS-CoV Urbani / Binding of serum 37 to linear peptides of protein X1 of SARS-CoV Urbani / Binding of serum 6 to looped/cyclic peptide (PEPSCAN-ELISA) / Binding of serum 37 to looped/cyclic peptide (PEPSCAN-ELISA) / Binding of serum 37 to looped/cyclic peptides of protein X1 of SARS-CoV Urbani / Binding of serum 6 to linear peptides of protein X2 / Binding of serum 37 to linear peptides of protein X2 / Binding of serum 37 to looped/cyclic peptides of protein X2 of SARS-CoV Urbani / Binding of serum 6 to linear peptides of protein M of SARS-CoV Urbani / Binding of serum 37 to linear peptides of protein M of SARS-CoV Urbani / Binding of serum 6 to looped/cyclic peptides of protein M of SARS-CoV Urbani / Binding of serum 37 to looped/cyclic peptides of protein M of SARS-CoV Urbani / Binding of serum 6 to linear peptides of protein X3 of SARS-CoV Urbani / Binding of serum 37 to linear peptides of protein X3 of SARS-CoV Urbani / Binding of serum 37 to looped/cyclic peptides of protein X3 of SARS-CoV Urbani / Binding of serum 6 to linear peptides of protein X4 of SARS-CoV Urbani / Binding of serum 37 to linear peptides of protein X4 of SARS-CoV Urbani / Binding of serum 37 to looped/cyclic peptides of protein X4 of SARS-CoV Urbani / Binding of serum 6 to linear peptides of protein X5 of SARS-CoV Urbani / Binding of serum 37 to linear peptides of protein X5 of SARS-CoV Urbani / Binding of serum 37 to looped/cyclic peptides of protein X5 of SARS-CoV Urbani / Binding of serum 6 to linear peptides of protein N of SARS-CoV Urbani / Binding of serum 37 to linear peptides of protein N of SARS-CoV Urbani / Binding of serum 6 to linear peptide (PEPSCAN-ELISA) / Binding of serum 1a to looped/cyclic peptides of protein N of SARS-CoV Urbani / Binding of serum 1b to looped/cyclic peptides of protein N of SARS-CoV Urbani / Binding of serum 2 to looped/cyclic peptides of protein N of SARS-CoV Urbani / Binding of serum 6 to looped/cyclic peptides of protein N of SARS-CoV Urbani / Binding of serum 37 to looped/cyclic peptides of protein N of SARS-CoV Urbani / Binding of serum 62 to looped/cyclic peptides of protein N of SARS-CoV Urbani / Binding of serum London to looped/cyclic peptides of protein N of SARS-CoV Urbani / Binding of serum SARS-green to looped/cyclic peptides of protein N of SARS-CoV Urbani: unit not given here
[2] = system: recombinant human anti-SARS-CoV antibody 03-018; assay type: binding; set-up: Binding of antibody 03-018 to linear peptides of the N protein of SARS-CoV Urbani / Binding of antibody 03-018 to looped/cyclic peptides of the N protein of SARS-CoV Urbani: unit not given here
[3] = system: control sera (pooled serum of ten healthy LUMC hospital workers; commercial negative donor pooled serum from the Dutch bloodbank); assay type: binding, human; set-up: Binding of Control serum LUMC to linear peptides / Binding of Control serum Blood-bank to linear peptides / Binding of Control serum LUMC to looped peptides / Binding of Control Serum Blood-Bank to Looped peptides / Binding of Control serum LUMC to linear peptides of the protein M of SARS-CoV Urbani / Binding of Control serum Blood-bank to linear peptides of the protein M of SARS-CoV Urbani / Binding of Control serum LUMC to looped peptides of the protein M of SARS-CoV Urbani / Binding of Control Serum Blood-Bank to Looped peptides of the protein M of SARS-CoV Urbani: unit not given here
[4] = system: rabbit serum obtained by immunizing a rabbit with the SARS-CoV strain Frankfurt 1; assay type: binding; set-up: Binding of a rabbit serum to linear peptides / Binding of a rabbit serum to looped peptides / Rabbit serum linear peptides / Rabbit serum looped peptides / Binding of a rabbit serum to linear peptides of protein N of SARS-CoV Urbani (Rabbit serum linear peptides) / Binding of a rabbit serum to looped/cyclic peptides of protein N of SARS-CoV Urbani (Rabbit serum looped peptides): unit not given here

ILLNKHIDAYKTFPP
Binding of serum 1a to linear peptides of protein N of SARS-CoV Urbani [1]: 0.2
Binding of serum 1a to looped/cyclic peptides of protein N of SARS-CoV Urbani [1]: 0.4
Binding of serum 1b to linear peptides of protein N of SARS-CoV Urbani [1]: 0.1
Binding of serum 1b to looped/cyclic peptides of protein N of SARS-CoV Urbani [1]: 0.3
Binding of serum 2 to linear peptides of protein N of SARS-CoV Urbani [1]: 0.2
Binding of serum 2 to looped/cyclic peptides of protein N of SARS-CoV Urbani [1]: 0.5
Binding of serum 6 to linear peptides of protein N of SARS-CoV Urbani [1]: 0.2
Binding of serum 6 to looped/cyclic peptides of protein N of SARS-CoV Urbani [1]: 0.3
Binding of serum 37 to linear peptides of protein N of SARS-CoV Urbani [1]: 0.7
Binding of serum 37 to looped/cyclic peptides of protein N of SARS-CoV Urbani [1]: 0.7
Binding of serum 62 to linear peptides of protein N of SARS-CoV Urbani [1]: 0.7
Binding of serum 62 to looped/cyclic peptides of protein N of SARS-CoV Urbani [1]: 0.7
Binding of serum London to linear peptides of protein N of SARS-CoV Urbani [1]: 0.5
Binding of serum London to looped/cyclic peptides of protein N of SARS-CoV Urbani [1]: 0.5
Binding of serum SARS-green to linear peptides of protein N of SARS-CoV Urbani [1]: 0.3
Binding of serum SARS-green to looped/cyclic peptides of protein N of SARS-CoV Urbani [1]: 0.5
Binding of serum SARS-yellow to linear peptides of protein N of SARS-CoV Urbani [1]: 0.5
Binding of serum SARS-yellow to looped/cyclic peptides of protein N of SARS-CoV Urbani [1]: 0.7
Binding of antibody 03-018 to linear peptides of the N protein of SARS-CoV Urbani [2]: 0.1
Binding of antibody 03-018 to looped/cyclic peptides of the N protein of SARS-CoV Urbani [2]: 0.2
Control Serum Blood-Bank Looped peptides [3]: 0.6
Control serum Blood-bank linear peptides [3]: 0.7
Control serum LUMC linear peptides [3]: 0.7
Control serum LUMC looped peptides [3]: 0.7
Binding of a rabbit serum to linear peptides of protein N of SARS-CoV Urbani (Rabbit serum linear peptides) [4]: 0.2
Binding of a rabbit serum to looped/cyclic peptides of protein N of SARS-CoV Urbani (Rabbit serum looped peptides) [4]: 0.6

GRNGARPKQRRPQGL
Binding of serum 1a to linear peptides of protein N of SARS-CoV Urbani [1]: 0.2
Binding of serum 1a to looped/cyclic peptides of protein N of SARS-CoV Urbani [1]: 0.2
Binding of serum 1b to linear peptides of protein N of SARS-CoV Urbani [1]: 0.1
Binding of serum 1b to looped/cyclic peptides of protein N of SARS-CoV Urbani [1]: 0.1
Binding of serum 2 to linear peptides of protein N of SARS-CoV Urbani [1]: 0.2
Binding of serum 2 to looped/cyclic peptides of protein N of SARS-CoV Urbani [1]: 0.2
Binding of serum 6 to linear peptides of protein N of SARS-CoV Urbani [1]: 0.2
Binding of serum 6 to looped/cyclic peptides of protein N of SARS-CoV Urbani [1]: 0.2
Binding of serum 37 to linear peptides of protein N of SARS-CoV Urbani [1]: 0.7
Binding of serum 37 to looped/cyclic peptides of protein N of SARS-CoV Urbani [1]: 0.4
Binding of serum 62 to linear peptides of protein N of SARS-CoV Urbani [1]: 0.6
Binding of serum 62 to looped/cyclic peptides of protein N of SARS-CoV Urbani [1]: 0.3
Binding of serum London to linear peptides of protein N of SARS-CoV Urbani [1]: 0.4
Binding of serum London to looped/cyclic peptides of protein N of SARS-CoV Urbani [1]: 0.3
Binding of serum SARS-green to linear peptides of protein N of SARS-CoV Urbani [1]: 0.4
Binding of serum SARS-green to looped/cyclic peptides of protein N of SARS-CoV Urbani [1]: 0.2
Binding of serum SARS-yellow to linear peptides of protein N of SARS-CoV Urbani [1]: 0.4
Binding of serum SARS-yellow to looped/cyclic peptides of protein N of SARS-CoV Urbani [1]: 0.3
Binding of antibody 03-018 to linear peptides of the N protein of SARS-CoV Urbani [2]: 0.1
Binding of antibody 03-018 to looped/cyclic peptides of the N protein of SARS-CoV Urbani [2]: 0.2
Binding of Control Serum Blood-Bank to Looped peptides [3]: 0.5
Binding of Control serum Blood-bank to linear peptides [3]: 0.7
Binding of Control serum LUMC to linear peptides [3]: 0.6
Binding of Control serum LUMC to looped peptides [3]: 0.5
Binding of a rabbit serum to linear peptides of protein N of SARS-CoV Urbani (Rabbit serum linear peptides) [4]: 0.2
Binding of a rabbit serum to looped/cyclic peptides of protein N of SARS-CoV Urbani (Rabbit serum looped peptides) [4]: 0.7

RFPRGQGVPINTNSG
Binding of serum 1a to linear peptides of protein N of SARS-CoV Urbani [1]: 0.2
Binding of serum 1a to looped/cyclic peptides of protein N of SARS-CoV Urbani [1]: 0.3
Binding of serum 1b to linear peptides of protein N of SARS-CoV Urbani [1]: 0.1
Binding of serum 1b to looped/cyclic peptides of protein N of SARS-CoV Urbani [1]: 0.2
Binding of serum 2 to linear peptides of protein N of SARS-CoV Urbani [1]: 0.3
Binding of serum 2 to looped/cyclic peptides of protein N of SARS-CoV Urbani [1]: 0.4
Binding of serum 6 to linear peptides of protein N of SARS-CoV Urbani [1]: 0.1
Binding of serum 6 to looped/cyclic peptides of protein N of SARS-CoV Urbani [1]: 0.2
Binding of serum 37 to linear peptides of protein N of SARS-CoV Urbani [1]: 0.7
Binding of serum 37 to looped/cyclic peptides of protein N of SARS-CoV Urbani [1]: 0.5
Binding of serum 62 to linear peptides of protein N of SARS-CoV Urbani [1]: 0.7
Binding of serum 62 to looped/cyclic peptides of protein N of SARS-CoV Urbani [1]: 0.4
Binding of serum London to linear peptides of protein N of SARS-CoV Urbani [1]: 0.5
Binding of serum London to looped/cyclic peptides of protein N of SARS-CoV Urbani [1]: 0.3
Binding of serum SARS-green to linear peptides of protein N of SARS-CoV Urbani [1]: 0.4
Binding of serum SARS-green to looped/cyclic peptides of protein N of SARS-CoV Urbani [1]: 0.5
Binding of serum SARS-yellow to linear peptides of protein N of SARS-CoV Urbani [1]: 0.6
Binding of serum SARS-yellow to looped/cyclic peptides of protein N of SARS-CoV Urbani [1]: 0.4
Binding of antibody 03-018 to linear peptides of the N protein of SARS-CoV Urbani [2]: 0.1
Binding of antibody 03-018 to looped/cyclic peptides of the N protein of SARS-CoV Urbani [2]: 0.2
Binding of Control Serum Blood-Bank to Looped peptides [3]: 0.6
Binding of Control serum Blood-bank to linear peptides [3]: 0.8
Binding of Control serum LUMC to linear peptides [3]: 0.6
Binding of Control serum LUMC to looped peptides [3]: 0.5
Binding of a rabbit serum to linear peptides of protein N of SARS-CoV Urbani (Rabbit serum linear peptides) [4]: 0.1
Binding of a rabbit serum to looped/cyclic peptides of protein N of SARS-CoV Urbani (Rabbit serum looped peptides) [4]: 0.5

INTNSGPDDQIGYYR
Binding of serum 1a to linear peptides of protein N of SARS-CoV Urbani [1]: 0.3
Binding of serum 1a to looped/cyclic peptides of protein N of SARS-CoV Urbani [1]: 0.4
Binding of serum 1b to linear peptides of protein N of SARS-CoV Urbani [1]: 0.2
Binding of serum 1b to looped/cyclic peptides of protein N of SARS-CoV Urbani [1]: 0.3
Binding of serum 2 to linear peptides of protein N of SARS-CoV Urbani [1]: 0.2
Binding of serum 2 to looped/cyclic peptides of protein N of SARS-CoV Urbani [1]: 0.4
Binding of serum 6 to linear peptides of protein N of SARS-CoV Urbani [1]: 0.2
Binding of serum 6 to looped/cyclic peptides of protein N of SARS-CoV Urbani [1]: 0.2
Binding of serum 37 to linear peptides of protein N of SARS-CoV Urbani [1]: 0.9
Binding of serum 37 to looped/cyclic peptides of protein N of SARS-CoV Urbani [1]: 0.7
Binding of serum 62 to linear peptides of protein N of SARS-CoV Urbani [1]: 0.7
Binding of serum 62 to looped/cyclic peptides of protein N of SARS-CoV Urbani [1]: 0.5
Binding of serum London to linear peptides of protein N of SARS-CoV Urbani [1]: 0.4
Binding of serum London to looped/cyclic peptides of protein N of SARS-CoV Urbani [1]: 0.4
Binding of serum SARS-green to linear peptides of protein N of SARS-CoV Urbani [1]: 0.2
Binding of serum SARS-green to looped/cyclic peptides of protein N of SARS-CoV Urbani [1]: 0.5
Binding of serum SARS-yellow to linear peptides of protein N of SARS-CoV Urbani [1]: 0.7
Binding of serum SARS-yellow to looped/cyclic peptides of protein N of SARS-CoV Urbani [1]: 0.5
Binding of antibody 03-018 to linear peptides of the N protein of SARS-CoV Urbani [2]: 0.1
Binding of antibody 03-018 to looped/cyclic peptides of the N protein of SARS-CoV Urbani [2]: 0.2
Binding of Control Serum Blood-Bank to Looped peptides [3]: 0.6
Binding of Control serum Blood-bank to linear peptides [3]: 0.8
Binding of Control serum LUMC to linear peptides [3]: 0.7
Binding of Control serum LUMC to looped peptides [3]: 0.7
Binding of a rabbit serum to linear peptides of protein N of SARS-CoV Urbani (Rabbit serum linear peptides) [4]: 0.2
Binding of a rabbit serum to looped/cyclic peptides of protein N of SARS-CoV Urbani (Rabbit serum looped peptides) [4]: 0.5
